Assay results taken from ChEMBL document CHEMBL4507304, “Data for DCP probe TP-021” (2021).

Columns and labels:
[1] = target: Mitogen-activated protein kinase 7 (Homo sapiens) (UniProt Q13164); settings: Compound concentration 1000.0 nM
[2] = target: Ephrin type-B receptor 3 (Homo sapiens) (UniProt P54753); settings: Compound concentration 1000.0 nM
[3] = target: Receptor-interacting serine/threonine-protein kinase 2 (Homo sapiens) (UniProt O43353); settings: Compound concentration 1000.0 nM
[4] = test system: Proto-oncogene tyrosine-protein kinase receptor Ret (Homo sapiens), P07949 [M918T]; settings: Compound concentration 1000.0 nM
Proto-oncogene tyrosine-protein kinase receptor Ret (Homo sapiens), P07949 [M918T], sequence (P07949 whole entry M918T): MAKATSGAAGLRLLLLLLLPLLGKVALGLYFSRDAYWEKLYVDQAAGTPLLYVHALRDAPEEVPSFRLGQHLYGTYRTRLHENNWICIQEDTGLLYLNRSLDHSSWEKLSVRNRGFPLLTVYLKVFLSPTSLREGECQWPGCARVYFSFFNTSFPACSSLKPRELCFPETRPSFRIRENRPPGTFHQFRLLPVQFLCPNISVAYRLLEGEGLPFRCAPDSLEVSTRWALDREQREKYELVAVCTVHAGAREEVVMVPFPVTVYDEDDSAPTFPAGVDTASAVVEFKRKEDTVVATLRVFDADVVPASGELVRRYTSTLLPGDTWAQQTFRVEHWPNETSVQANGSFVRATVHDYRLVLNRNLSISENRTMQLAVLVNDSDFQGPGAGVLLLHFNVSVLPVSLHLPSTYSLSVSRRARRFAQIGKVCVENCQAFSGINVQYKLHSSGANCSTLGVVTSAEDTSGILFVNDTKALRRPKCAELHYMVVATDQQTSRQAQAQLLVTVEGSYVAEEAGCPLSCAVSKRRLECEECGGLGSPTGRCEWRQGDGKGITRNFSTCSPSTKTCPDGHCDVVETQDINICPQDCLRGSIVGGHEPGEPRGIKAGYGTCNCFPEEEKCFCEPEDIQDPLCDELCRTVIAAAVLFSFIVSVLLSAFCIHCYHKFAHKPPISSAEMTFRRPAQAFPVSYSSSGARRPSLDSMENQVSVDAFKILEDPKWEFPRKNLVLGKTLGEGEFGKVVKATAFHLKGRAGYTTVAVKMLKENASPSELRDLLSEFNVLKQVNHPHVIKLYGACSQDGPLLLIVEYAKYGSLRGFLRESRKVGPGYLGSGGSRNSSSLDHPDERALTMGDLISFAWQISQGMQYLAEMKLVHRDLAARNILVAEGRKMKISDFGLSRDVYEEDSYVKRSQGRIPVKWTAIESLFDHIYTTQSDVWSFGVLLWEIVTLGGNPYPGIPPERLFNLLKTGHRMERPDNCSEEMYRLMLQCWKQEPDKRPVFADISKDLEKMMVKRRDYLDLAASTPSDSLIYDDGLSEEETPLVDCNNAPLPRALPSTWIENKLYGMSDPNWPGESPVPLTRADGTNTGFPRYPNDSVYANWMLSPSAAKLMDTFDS

[5] = target: Dual specificity protein kinase CLK4 (Homo sapiens) (UniProt Q9HAZ1); settings: Compound concentration 1000.0 nM
[6] = target: Alpha-1D adrenergic receptor (Homo sapiens) (UniProt P25100); settings: Compound concentration 10.0 uM
[7] = target: Serine/threonine-protein kinase ULK1 (Homo sapiens) (UniProt O75385); settings: Compound concentration 1000.0 nM
[8] = target: Tyrosine-protein kinase Tec (Homo sapiens) (UniProt P42680); settings: Compound concentration 1000.0 nM
[9] = target: Casein kinase I isoform gamma-2 (Homo sapiens) (UniProt P78368); settings: Compound concentration 1000.0 nM
[10] = target: Inhibitor of nuclear factor kappa-B kinase subunit epsilon (Homo sapiens) (UniProt Q14164); settings: Compound concentration 1000.0 nM
[11] = target: Serine/threonine-protein kinase haspin (Homo sapiens) (UniProt Q8TF76); settings: Compound concentration 1000.0 nM
[12] = target: Serine/threonine-protein kinase 25 (Homo sapiens) (UniProt O00506); settings: Compound concentration 1000.0 nM
[13] = target: Receptor-interacting serine/threonine-protein kinase 1 (Homo sapiens) (UniProt Q13546); settings: Compound concentration 1000.0 nM
Receptor-interacting serine/threonine-protein kinase 1 (Homo sapiens), sequence (Q13546 whole entry): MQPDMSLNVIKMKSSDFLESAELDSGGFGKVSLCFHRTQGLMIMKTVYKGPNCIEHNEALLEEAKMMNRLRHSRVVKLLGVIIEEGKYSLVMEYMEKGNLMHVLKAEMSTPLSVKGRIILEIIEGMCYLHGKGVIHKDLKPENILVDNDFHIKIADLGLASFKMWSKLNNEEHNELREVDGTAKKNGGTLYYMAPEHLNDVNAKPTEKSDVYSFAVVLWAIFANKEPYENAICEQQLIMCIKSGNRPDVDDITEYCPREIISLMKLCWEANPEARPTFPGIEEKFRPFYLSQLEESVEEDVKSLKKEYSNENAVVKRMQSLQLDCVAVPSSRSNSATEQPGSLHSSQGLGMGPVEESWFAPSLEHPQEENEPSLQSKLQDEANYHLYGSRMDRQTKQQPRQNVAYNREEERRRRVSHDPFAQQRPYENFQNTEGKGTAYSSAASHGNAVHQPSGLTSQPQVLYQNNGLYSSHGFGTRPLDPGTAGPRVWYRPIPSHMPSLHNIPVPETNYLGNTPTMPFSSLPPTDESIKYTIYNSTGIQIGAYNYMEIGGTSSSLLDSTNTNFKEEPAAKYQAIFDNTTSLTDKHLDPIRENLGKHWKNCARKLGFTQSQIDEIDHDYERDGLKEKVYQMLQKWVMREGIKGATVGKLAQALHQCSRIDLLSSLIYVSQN

[14] = target: Misshapen-like kinase 1 (Homo sapiens) (UniProt Q8N4C8); settings: Compound concentration 1000.0 nM
[15] = target: LIM domain kinase 2 (Homo sapiens) (UniProt P53671); settings: Compound concentration 1000.0 nM
[16] = test system: Receptor-type tyrosine-protein kinase FLT3 (Homo sapiens), P36888 [UNDEFINED MUTATION]; settings: Compound concentration 1000.0 nM
[17] = target: Aurora kinase B (Homo sapiens) (UniProt Q96GD4); settings: Compound concentration 1000.0 nM
[18] = target: Serine/threonine-protein kinase DCLK3 (Homo sapiens) (UniProt Q9C098); settings: Compound concentration 1000.0 nM
[19] = target: Cyclin-dependent kinase 13 (Homo sapiens) (UniProt Q14004); settings: Compound concentration 1000.0 nM
Cyclin-dependent kinase 13 (Homo sapiens), sequence (Q14004 whole entry, looked up): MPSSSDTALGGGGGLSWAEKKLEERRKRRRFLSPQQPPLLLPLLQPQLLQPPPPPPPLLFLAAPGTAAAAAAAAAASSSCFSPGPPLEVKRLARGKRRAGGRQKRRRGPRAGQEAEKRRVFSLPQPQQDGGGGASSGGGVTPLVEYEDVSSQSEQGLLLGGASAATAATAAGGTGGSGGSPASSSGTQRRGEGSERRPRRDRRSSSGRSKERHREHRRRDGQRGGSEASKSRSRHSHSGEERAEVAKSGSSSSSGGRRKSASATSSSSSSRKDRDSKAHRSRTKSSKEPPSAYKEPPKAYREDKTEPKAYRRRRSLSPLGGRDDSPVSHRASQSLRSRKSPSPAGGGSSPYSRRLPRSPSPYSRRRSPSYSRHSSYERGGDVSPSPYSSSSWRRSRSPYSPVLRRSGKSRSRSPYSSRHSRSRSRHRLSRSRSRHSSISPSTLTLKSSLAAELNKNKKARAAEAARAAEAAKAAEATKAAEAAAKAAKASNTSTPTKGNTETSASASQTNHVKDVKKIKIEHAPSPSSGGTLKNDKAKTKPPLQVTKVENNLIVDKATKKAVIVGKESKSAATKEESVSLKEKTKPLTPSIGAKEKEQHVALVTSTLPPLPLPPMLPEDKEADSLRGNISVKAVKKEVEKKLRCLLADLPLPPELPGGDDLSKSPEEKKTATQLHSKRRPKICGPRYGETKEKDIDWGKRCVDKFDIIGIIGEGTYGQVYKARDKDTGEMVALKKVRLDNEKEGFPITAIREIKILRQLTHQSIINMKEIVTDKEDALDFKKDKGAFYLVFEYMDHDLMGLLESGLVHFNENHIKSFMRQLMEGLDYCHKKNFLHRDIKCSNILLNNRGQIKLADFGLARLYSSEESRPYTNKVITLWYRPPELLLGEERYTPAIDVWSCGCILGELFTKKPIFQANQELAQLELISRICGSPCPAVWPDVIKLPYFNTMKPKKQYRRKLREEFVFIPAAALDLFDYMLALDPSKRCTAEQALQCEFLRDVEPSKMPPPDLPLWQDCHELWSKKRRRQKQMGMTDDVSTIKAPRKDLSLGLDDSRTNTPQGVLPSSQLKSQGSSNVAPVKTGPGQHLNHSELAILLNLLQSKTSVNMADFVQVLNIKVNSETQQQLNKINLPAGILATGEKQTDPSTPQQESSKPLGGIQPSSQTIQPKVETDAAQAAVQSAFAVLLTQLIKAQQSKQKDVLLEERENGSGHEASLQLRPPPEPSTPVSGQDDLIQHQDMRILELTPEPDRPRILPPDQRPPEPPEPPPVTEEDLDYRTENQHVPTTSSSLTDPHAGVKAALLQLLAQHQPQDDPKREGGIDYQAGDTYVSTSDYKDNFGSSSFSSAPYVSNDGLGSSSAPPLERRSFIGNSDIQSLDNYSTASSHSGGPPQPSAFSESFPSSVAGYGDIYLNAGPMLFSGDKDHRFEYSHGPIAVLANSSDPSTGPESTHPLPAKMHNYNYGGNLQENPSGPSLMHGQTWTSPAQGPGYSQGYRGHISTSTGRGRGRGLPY

[20] = target: Mitogen-activated protein kinase 1 (Homo sapiens) (UniProt P28482); settings: Compound concentration 1000.0 nM
[21] = test system: Epidermal growth factor receptor (Homo sapiens), P00533 [UNDEFINED MUTATION]; settings: Compound concentration 1000.0 nM
[22] = target: Mitogen-activated protein kinase 6 (Homo sapiens) (UniProt Q16659); settings: Compound concentration 1000.0 nM
[23] = test system: Receptor-type tyrosine-protein kinase FLT3 (Homo sapiens), P36888 [K663Q]; settings: Compound concentration 1000.0 nM
[24] = target: Casein kinase II subunit alpha (Homo sapiens) (UniProt P68400); settings: Compound concentration 1000.0 nM
Casein kinase II subunit alpha (Homo sapiens), sequence (P68400 whole entry, looked up): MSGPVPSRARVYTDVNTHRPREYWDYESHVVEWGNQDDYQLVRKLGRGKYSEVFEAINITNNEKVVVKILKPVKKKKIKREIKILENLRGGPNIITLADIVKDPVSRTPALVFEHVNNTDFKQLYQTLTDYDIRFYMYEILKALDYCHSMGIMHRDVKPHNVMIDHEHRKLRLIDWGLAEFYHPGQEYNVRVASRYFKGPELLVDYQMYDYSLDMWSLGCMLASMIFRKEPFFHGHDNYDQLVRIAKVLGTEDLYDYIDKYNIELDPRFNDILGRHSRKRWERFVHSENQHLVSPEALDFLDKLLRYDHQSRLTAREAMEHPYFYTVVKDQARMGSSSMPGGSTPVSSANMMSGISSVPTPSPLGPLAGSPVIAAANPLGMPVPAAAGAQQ

[25] = test system: Tyrosine-protein kinase ABL1 (Homo sapiens), P00519 [Q252H]; settings: Compound concentration 1000.0 nM
[26] = test system: Phosphatidylinositol 4,5-bisphosphate 3-kinase catalytic subunit alpha isoform (Homo sapiens), P42336 [E542K]; settings: Compound concentration 1000.0 nM
[27] = target: Calcium/calmodulin-dependent protein kinase type II subunit beta (Homo sapiens) (UniProt Q13554); settings: Compound concentration 1000.0 nM
[28] = target: Tyrosine-protein kinase receptor UFO (Homo sapiens) (UniProt P30530); settings: Compound concentration 1000.0 nM
[29] = target: Mitogen-activated protein kinase kinase kinase kinase 5 (Homo sapiens) (UniProt Q9Y4K4); settings: Compound concentration 1000.0 nM
[30] = target: Vascular endothelial growth factor receptor 1 (Homo sapiens) (UniProt P17948); settings: Compound concentration 1000.0 nM
[31] = target: Tyrosine-protein kinase BTK (Homo sapiens) (UniProt Q06187); settings: Compound concentration 1000.0 nM
[32] = target: Tyrosine-protein kinase ABL2 (Homo sapiens) (UniProt P42684); settings: Compound concentration 1000.0 nM
Tyrosine-protein kinase ABL2 (Homo sapiens), sequence (P42684 whole entry): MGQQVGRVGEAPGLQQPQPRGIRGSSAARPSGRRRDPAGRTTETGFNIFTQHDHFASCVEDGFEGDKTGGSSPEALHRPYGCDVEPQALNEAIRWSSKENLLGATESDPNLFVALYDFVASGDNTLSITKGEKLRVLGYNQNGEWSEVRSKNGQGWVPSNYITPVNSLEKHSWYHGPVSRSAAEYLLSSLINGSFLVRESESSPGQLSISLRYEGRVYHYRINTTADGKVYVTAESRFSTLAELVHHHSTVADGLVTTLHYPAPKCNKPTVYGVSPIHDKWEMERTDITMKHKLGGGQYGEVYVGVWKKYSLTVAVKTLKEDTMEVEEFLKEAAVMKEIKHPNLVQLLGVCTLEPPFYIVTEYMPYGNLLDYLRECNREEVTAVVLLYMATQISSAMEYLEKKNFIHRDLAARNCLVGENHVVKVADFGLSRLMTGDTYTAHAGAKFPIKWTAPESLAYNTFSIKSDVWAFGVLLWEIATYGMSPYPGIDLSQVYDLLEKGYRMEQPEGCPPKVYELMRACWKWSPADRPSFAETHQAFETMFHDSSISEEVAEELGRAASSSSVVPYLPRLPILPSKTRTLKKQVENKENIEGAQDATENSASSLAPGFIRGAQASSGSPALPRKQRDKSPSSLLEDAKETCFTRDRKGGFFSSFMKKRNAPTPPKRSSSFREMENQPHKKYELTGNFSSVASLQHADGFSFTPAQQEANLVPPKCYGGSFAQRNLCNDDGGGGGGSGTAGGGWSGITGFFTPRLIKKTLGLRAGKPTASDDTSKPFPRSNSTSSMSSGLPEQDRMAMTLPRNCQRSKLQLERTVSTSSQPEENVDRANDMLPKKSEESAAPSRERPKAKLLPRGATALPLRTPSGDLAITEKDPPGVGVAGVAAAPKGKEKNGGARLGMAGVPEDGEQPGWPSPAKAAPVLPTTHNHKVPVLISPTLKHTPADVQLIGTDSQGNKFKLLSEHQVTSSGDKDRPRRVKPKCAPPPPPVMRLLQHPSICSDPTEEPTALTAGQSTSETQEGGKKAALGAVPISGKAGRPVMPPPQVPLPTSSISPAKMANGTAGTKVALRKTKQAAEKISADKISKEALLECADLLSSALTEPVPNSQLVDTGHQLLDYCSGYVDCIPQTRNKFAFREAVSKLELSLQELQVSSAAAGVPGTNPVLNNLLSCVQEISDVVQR

[33] = target: Tyrosine-protein kinase HCK (Homo sapiens) (UniProt P08631); settings: Compound concentration 1000.0 nM
[34] = target: Serine/threonine-protein kinase WNK1 (Homo sapiens) (UniProt Q9H4A3); settings: Compound concentration 1000.0 nM
[35] = target: LIM domain kinase 1 (Homo sapiens) (UniProt P53667); settings: Compound concentration 1000.0 nM
[36] = target: Phosphatidylinositol 5-phosphate 4-kinase type-2 gamma (Homo sapiens) (UniProt Q8TBX8); settings: Compound concentration 1000.0 nM
[37] = target: Tyrosine-protein kinase CSK (Homo sapiens) (UniProt P41240); settings: Compound concentration 1000.0 nM
[38] = target: Serine/threonine-protein kinase DCLK2 (Homo sapiens) (UniProt Q8N568); settings: Compound concentration 1000.0 nM
[39] = target: Serine/threonine-protein kinase PAK 5 (Homo sapiens) (UniProt Q9P286); settings: Compound concentration 1000.0 nM
[40] = target: Uncharacterized serine/threonine-protein kinase SBK3 (Homo sapiens) (UniProt P0C264); settings: Compound concentration 1000.0 nM
[41] = test system: Epidermal growth factor receptor (Homo sapiens), P00533 [L861Q]; settings: Compound concentration 1000.0 nM
[42] = target: RAC-beta serine/threonine-protein kinase (Homo sapiens) (UniProt P31751); settings: Compound concentration 1000.0 nM
[43] = target: Serine/threonine-protein kinase DCLK1 (Homo sapiens) (UniProt O15075); settings: Compound concentration 1000.0 nM
[44] = target: Mitogen-activated protein kinase kinase kinase 15 (Homo sapiens) (UniProt Q6ZN16); settings: Compound concentration 1000.0 nM
[45] = target: Discoidin domain-containing receptor 2 (Homo sapiens) (UniProt Q16832); settings: Compound concentration 1000.0 nM

N#Cc1ccc(Nc2ccc3[nH]c(=O)[nH]c3c2)c(Cl)c1
inactive: residual activity [1] 100% | residual activity [2] 100% | residual activity [3] 70% | residual activity [4] 100% | residual activity [5] 98% | inhibition [6] -5.71% | residual activity [7] 81% | residual activity [8] 96% | residual activity [9] 100% | residual activity [10] 100% | residual activity [11] 100% | residual activity [12] 100% | residual activity [13] 100% | residual activity [14] 91% | residual activity [15] 100% | residual activity [16] 100% | residual activity [17] 85% | residual activity [18] 88% | residual activity [19] 100% | residual activity [20] 100% | residual activity [21] 100% | residual activity [22] 100% | residual activity [23] 92% | residual activity [24] 80% | residual activity [25] 89% | residual activity [26] 70% | residual activity [27] 91% | residual activity [28] 100% | residual activity [29] 77% | residual activity [30] 100% | residual activity [31] 100% | residual activity [32] 93% | residual activity [33] 100% | residual activity [34] 100% | residual activity [35] 100% | residual activity [36] 100% | residual activity [37] 89% | residual activity [38] 100% | residual activity [39] 100% | residual activity [40] 96% | residual activity [41] 100% | residual activity [42] 89% | residual activity [43] 84% | residual activity [44] 68% | residual activity [45] 100%

O=C1CCc2cc(Nc3cc(OC4CCOCC4)c([N+](=O)[O-])cc3Cl)ccc2N1
inactive: residual activity [1] 100% | residual activity [2] 88% | residual activity [3] 53% | residual activity [4] 94% | residual activity [5] 88% | inhibition [6] 3.49% | residual activity [7] 87% | residual activity [8] 82% | residual activity [9] 88% | residual activity [10] 90% | residual activity [11] 100% | residual activity [12] 100% | residual activity [13] 100% | residual activity [14] 83% | residual activity [15] 100% | residual activity [16] 78% | residual activity [17] 86% | residual activity [18] 91% | residual activity [19] 100% | residual activity [20] 99% | residual activity [21] 100% | residual activity [22] 100% | residual activity [23] 100% | residual activity [24] 84% | residual activity [25] 79% | residual activity [26] 71% | residual activity [27] 90% | residual activity [28] 96% | residual activity [29] 87% | residual activity [30] 100% | residual activity [31] 100% | residual activity [32] 79% | residual activity [33] 100% | residual activity [34] 86% | residual activity [35] 100% | residual activity [36] 100% | residual activity [37] 98% | residual activity [38] 100% | residual activity [39] 100% | residual activity [40] 100% | residual activity [41] 100% | residual activity [42] 82% | residual activity [43] 95% | residual activity [44] 78% | residual activity [45] 100%
